Legend:
[1] = system: UCP3; test: UCP3 RNA induction in rat L6 cells (QPCR); format: cell-based; set-up: key to UCP3 RNA induction, Induction at 10 μM: ++ denotes greater than 10-fold induction; + denotes 10-fold or less induction; — denotes no induction
Procedure: Table 1 provides QPCR data (ABI 7700 Sequence Detection System) for exemplary compounds of formula I evaluated for UCP3 RNA induction in L6 cells from rats. The assay is described in Example 14.4, below.
Rat UCP3 (L6 cells) QPCR Protocol
1. (Day1) Plate 300,000 L6 cells per well (24 well plate) in Minimum Essential Medium-Alpha Medium with 2% FBS and Antibiotic/Antimycotic Solution added. Incubate for 2 days and change to fresh medium (Day3). Incubate 1 more day.
2. (Day 4) Add compound at desired concentration. Incubate for 18-20 h. 2 wells per compound. 4-wells of DMSO controls per plate.
3. (Day 5) Prepare RNA from cells: • (1) Aspirate media and lyse cells directly on plate by adding 500 μL of Trizol Reagent (Gibco BRL) to each well and passing the lysate several times through a pipette. Transfer lysate to eppendorf tubes (combining the lysate from identical compound treatments). • (2) Add 200 μL of chloroform to the 1 mL of lysate. Vortex to mix and incubate at room temp. for 2-3 min. Spin samples in a microfuge at 12,000 rpm for 15 min. at 4° C. • (3) Transfer the aqueous phase to a fresh tube. Precipitate the RNA from the aqueous phase by adding 500 μL of isopropanol and mixing well. Incubate at −20° C. for at least 15 min. Pellet the RNA by spinning at 12,000 rpm for 10 min. at 4° C. • (4) Remove the supernatant and wash the RNA pellet with 500 μL of 75% ethanol. Spin at 10,000 rpm for 5 min. at 4° C. • (5) Remove the supernatant and allow pellet to air dry briefly. Dissolve RNA in 15 μL of RNase-free water. Store at −80° C. Electrophorese some RNA to check quality.
4. QPCR (50 μL reactions in 96 well MicroAmp Optical Plate): TaqMan Gold RT-PCR Reagents (PE catalog #N808-0232): OD RNA and dilute to 5 ng/μL in RNase-free water. All samples run in duplicate with UCP3 and m18S probe/primers
Add 40 μL of Reaction Mix to 10 μL of diluted RNA (50 ng total) on QPCR plate PCR Cycling Parameters • 48° C. 30 min. • 95° C. 10 min. • 40 cycles: 95° C. 15 sec. • 58° C. 1.5 min. QPCR Primers/Probes

[2] = molecular target: T1, RXRα (Homo sapiens, UniProt P19793); test: RXRα induction in HEK 293 cells (transient transfection, luciferase reporter); format: cell-based
T1 construct: expressed in transfected cells; host or cells: HEK 293 cells
T1 sequence (P19793 1-462): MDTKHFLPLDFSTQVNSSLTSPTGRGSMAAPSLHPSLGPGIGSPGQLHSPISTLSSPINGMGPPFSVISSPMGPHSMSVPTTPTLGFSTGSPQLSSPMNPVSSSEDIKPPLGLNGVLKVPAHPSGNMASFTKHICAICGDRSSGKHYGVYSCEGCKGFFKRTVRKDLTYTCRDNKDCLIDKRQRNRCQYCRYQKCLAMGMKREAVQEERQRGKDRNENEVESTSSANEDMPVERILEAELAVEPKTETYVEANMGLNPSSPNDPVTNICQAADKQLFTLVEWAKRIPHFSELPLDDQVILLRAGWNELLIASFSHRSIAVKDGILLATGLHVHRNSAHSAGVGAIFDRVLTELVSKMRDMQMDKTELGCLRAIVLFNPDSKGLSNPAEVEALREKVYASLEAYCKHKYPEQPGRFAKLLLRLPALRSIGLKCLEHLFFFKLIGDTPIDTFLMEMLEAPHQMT
Procedure: Table 2 provides QPCR data (ABI 7700 Sequence Detection System) for exemplary compounds of formula I evaluated for RXR induction in HEK 293 cells, following a general protocol, briefly described below. See Naeger et al. (1999) J. Biol. Chem. 274:1875-1878 for a related cell-based assay.
DNA constructs containing a luciferase reporter plasmid and another plasmid which contained an activation domain (e.g., RXRα) were transiently transfected into HEK 293 cells. The cells were treated with the compounds and luciferase activity was measured using a luminometer. Fold induction was determined by comparing the luciferase activity of treated cells to the activity of untreated cells.

Compound | fold induction at 10 µM [1] | melting point [°C] | RXRα RNA induction at 1 μM [2] | RXRα RNA induction at 3 μM [2] | RXRα RNA induction at 10 μM [2] | UCP3 RNA induction, Induction at 10 μM [1]
Cc1c(C(=O)O)cnn1-c1nc(-c2cccc(Cl)c2)cs1 [Compound 4, 1-[4-(3-Chlorophenyl)thiazol-2-yl]-5-methylpyrazole-4-carboxylic acid] | > 10 | 258 to 258.3 |  |  |  | 
O=C(O)c1cnn(-c2nc(-c3cccc(C(F)(F)F)c3)cs2)c1C(=O)O [Compound 16] |  |  | + (+ denotes 5-fold or less induction) | + (+ denotes 5-fold or less induction) | + (+ denotes 5-fold or less induction) | 
O=C(O)c1cnn(-c2nc(-c3cccc(C(F)(F)F)c3)cs2)c1 [Compound 6, 1-[4-(3-(Trifluoromethyl)phenyl)thiazol-2-yl]pyrazole-4-carboxylic acid] | > 10 | 229.1 to 229.6 |  |  |  | 
Cc1c(C(=O)O)cnn1-c1nc(-c2ccccc2)cs1 [Compound 17] |  |  | + (+ denotes 5-fold or less induction) | + (+ denotes 5-fold or less induction) | + (+ denotes 5-fold or less induction) | 
Cc1c(C(=O)O)cnn1-c1nc(-c2ccc(-c3ccccc3)cc2)cs1 [Compound 19] |  |  | + (+ denotes 5-fold or less induction) | + (+ denotes 5-fold or less induction) | + (+ denotes 5-fold or less induction) | 
Cc1c(C(=O)O)cnn1-c1nc(-c2ccc(Cl)cc2)cs1 [Compound 18] |  |  | + (+ denotes 5-fold or less induction) | ++ (++ denotes greater than 5-fold induction) | + (+ denotes 5-fold or less induction) | 
O=C(O)c1cnn(-c2nc(-c3cccc(C(F)(F)F)c3)cs2)c1C(F)(F)F [Compound 5, 1-[4-(3-(Trifluoromethyl)phenyl)thiazol-2-yl]-5-trifluoromethylpyrazole-4-carboxylic acid] | > 10 |  | + (+ denotes 5-fold or less induction) | + (+ denotes 5-fold or less induction) | + (+ denotes 5-fold or less induction) | 
COc1cccc(-c2csc(-n3ncc(C(=O)O)c3C)n2)c1 [Compound 14] |  |  | ++ (++ denotes greater than 5-fold induction) | ++ (++ denotes greater than 5-fold induction) | ++ (++ denotes greater than 5-fold induction) | 
Cc1c(C(=O)NCCC(=O)O)cnn1-c1nc(-c2cccc(C(F)(F)F)c2)cs1 [Compound 20] | ≤ 10 |  |  |  |  | 
CCOC(=O)c1cnn(-c2nc(-c3cccc([N+](=O)[O-])c3)cs2)c1C [Compound 8, Ethyl 1-[4-(3-nitrophenyl)thiazol-2-yl]-5-methylpyrazole-4-carboxylate] |  |  | + (+ denotes 5-fold or less induction) | + (+ denotes 5-fold or less induction) | + (+ denotes 5-fold or less induction) | —
CCc1c(C(=O)O)cnn1-c1nc(-c2cccc(C(F)(F)F)c2)cs1 [Compound 15] |  |  | + (+ denotes 5-fold or less induction) | ++ (++ denotes greater than 5-fold induction) | + (+ denotes 5-fold or less induction) | 
O=C(O)c1cnn(-c2nc(-c3cccc([N+](=O)[O-])c3)cs2)c1C(F)(F)F [Compound 12, 1-[4-(3-Nitrophenyl)thiazol-2-yl]-5-trifluoromethylpyrazole-4-carboxylic acid] |  |  |  |  |  | —

Reference: patent publication US7358267B2, “Bis-aryl thiazole derivatives” (Amgen Inc., priority 2001, dated 2008)
